Assay results published in the CheMixHub viscosity set.

Experiment: xn = mol fraction of the nth substance listed

CCCCn1cc[n+](C)c1.O=S(=O)([O-])C(F)(F)F + CCOC(C)=O
100 kPa
Details | viscosity [mPa·s]
298.15 K, x1 = 0.8932 | 54.68
303.15 K, x1 = 0.3056 | 8.97
308.15 K, x1 = 0.3056 | 7.31
313.15 K, x1 = 0.3056 | 6.63
313.15 K, x1 = 0.3978 | 9.79
318.15 K, x1 = 0.3056 | 5.79
323.15 K, x1 = 0.3056 | 4.97
323.15 K, x1 = 0.3978 | 7.21
323.15 K, x1 = 0.5067 | 9.88

Brc1ccc2[n-]cnc2c1.CCCCCCCCCCCCCC[P+](CCCCCC)(CCCCCC)CCCCCC + COCCOCCOCCOCCOC
viscosity [mPa·s], 100 kPa
Details | 293.15 K | 298.15 K | 303.15 K | 308.15 K | 313.15 K | 318.15 K | 323.15 K
x1 = 0.362 | 62 | – | – | – | – | – | –
x1 = 0.522 | 164 | 125 | 98 | 77 | 63 | 51 | –
x1 = 0.654 | 301 | 222 | 167 | 129 | 101 | 81 | 66
x1 = 0.782 | 631 | 449 | 326 | 243 | 185 | 143 | 114
x1 = 0.862 | 972 | 675 | 481 | 351 | 261 | 199 | 155
x1 = 0.898 | 1190 | 813 | 572 | 413 | 304 | 230 | 177

C1CCOC1 + CCCCCCC
viscosity [mPa·s], 101 kPa
Details | x1 = 0.1338 | x1 = 0.2578 | x1 = 0.3733 | x1 = 0.4809 | x1 = 0.5815 | x1 = 0.6758 | x1 = 0.7643 | x1 = 0.8475 | x1 = 0.926
293.15 K | 0.403 | 0.4075 | 0.413 | 0.4191 | 0.4285 | 0.4385 | 0.4495 | 0.4619 | 0.4751
298.15 K | 0.3861 | 0.3891 | 0.3935 | 0.3984 | 0.4061 | 0.4146 | 0.4242 | 0.4356 | 0.4465
